{"source": "ChEMBL document CHEMBL4130359", "about": "“Indazole-based ligands for estrogen-related receptor α as potential anti-diabetic agents” (Eur J Med Chem, 2017)", "key": {"[1]": {"test_system": "Rattus norvegicus", "assay": "Toxicity in Zucker rat sub-chronic fa/fa prediabetic model assessed as serum BUN level at 10 mg/kg, po qd for 31 days measured on day 32 (reference value: 28.3 +/- […])", "format": "organism-based", "conditions": "in vivo, 744 h"}, "[2]": {"test_system": "Rattus norvegicus", "assay": "Effect on ECHS1 gene expression in epididymal white adipose tissue of Zucker rat sub-chronic fa/fa prediabetic model at 10 mg/kg, po qd for 15 days by microarray analysis relative to control", "format": "functional"}, "[3]": {"test_system": "Rattus norvegicus", "assay": "Toxicity in […] chronic ob/ob model assessed as food intake at 10 mg/kg, po qd for 28 days measured on day 1 to 28 during compound dosing (reference value: 170.6 +/- 3 g)", "format": "organism-based", "conditions": "in vivo, 672 h"}, "[4]": {"test_system": "Rattus norvegicus", "assay": "Effect on PCK1 gene expression in epididymal white adipose tissue of Zucker rat sub-chronic fa/fa prediabetic model at 10 mg/kg, po qd for 15 days by microarray analysis relative to control", "format": "functional"}, "[5]": {"assay": "AUC (0 to 24 hrs) in ob/ob mouse at 18 mg/kg administered via oral gavage by LC-MS analysis", "format": "ADME, organism-based", "parameters": "dose 18 mg/kg, time < 24 hr, route oral", "conditions": "in vivo"}, "[6]": {"test_system": "Rattus norvegicus", "assay": "Effect on BAD gene expression in epididymal white adipose tissue of Zucker rat sub-chronic fa/fa prediabetic model at 10 mg/kg, po qd for 15 days by microarray analysis relative to control", "format": "functional"}, "[7]": {"test_system": "Rattus norvegicus", "assay": "Toxicity in Zucker rat sub-chronic fa/fa prediabetic model assessed as serum BUN level at 3 mg/kg, po qd for 31 days measured on day 32 (reference value: 28.3 +/- […])", "format": "organism-based", "conditions": "in vivo, 744 h"}, "[8]": {"test_system": "Rattus norvegicus", "assay": "Toxicity in Zucker rat sub-chronic fa/fa prediabetic model assessed as body weight at 3 mg/kg, po qd for 29 days measured on day 29 post last dose (reference value: 533 +/- 10 g)", "format": "organism-based", "conditions": "in vivo, 696 h"}, "[9]": {"test_system": "Rattus norvegicus", "assay": "Toxicity in […] chronic ob/ob model assessed as body weight at 50 mg/kg, po qd for 28 days measured on day 28 post last dose (reference value: 47.3 +/- 1.06 g)", "format": "organism-based", "conditions": "in vivo, 672 h"}, "[10]": {"test_system": "Rattus norvegicus", "assay": "Toxicity in Zucker rat sub-chronic fa/fa prediabetic model assessed as brown adipose tissue weight at 10 mg/kg, po qd for 31 days measured on day 32 (reference value: 2.1 +/- 0.3 g)", "format": "organism-based", "conditions": "in vivo, 744 h"}, "[11]": {"test_system": "Rattus norvegicus", "assay": "Toxicity in Zucker rat sub-chronic fa/fa prediabetic model assessed as body weight at 1 mg/kg, po qd for 29 days measured on day 29 post last dose (reference value: 533 +/- 10 g)", "format": "organism-based", "conditions": "in vivo, 696 h"}, "[12]": {"assay": "Cmax in […] chronic ob/ob model at 3 mg/kg, po qd for 28 days measured on day 28 post last dose", "format": "ADME, organism-based", "parameters": "dose 3 mg/kg, route oral", "conditions": "in vivo"}, "[13]": {"assay": "AUC (0 to 24 hrs) in […] model at 3 mg/kg, po qd for 28 days measured on day 28 post last dose", "format": "ADME, organism-based", "parameters": "dose 3 mg/kg, time < 24 hr, route oral", "conditions": "in vivo"}, "[14]": {"test_system": "Rattus norvegicus", "assay": "Toxicity in […] chronic ob/ob model assessed as serum triglyceride level at 50 mg/kg, po qd for 31 days measured on day 32 (reference value: 329 +/- 36 mg/dl)", "format": "organism-based", "conditions": "in vivo, 744 h"}, "[15]": {"test_system": "Rattus norvegicus", "assay": "Toxicity in Zucker rat sub-chronic fa/fa prediabetic model assessed as serum BUN level at 50 mg/kg, po qd for 31 days measured on day 32 (reference value: 28.3 +/- […])", "format": "organism-based", "conditions": "in vivo, 744 h"}, "[16]": {"test_system": "Rattus norvegicus", "assay": "Toxicity in Zucker rat sub-chronic fa/fa prediabetic model assessed as serum cholesterol level at 10 mg/kg, po qd for 31 days measured on day 32 (reference value: 295 +/- 91 mg/dl)", "format": "organism-based", "conditions": "in vivo, 744 h"}, "[17]": {"test_system": "Rattus norvegicus", "assay": "Effect on PPARGC1B gene expression in epididymal white adipose tissue of Zucker rat sub-chronic fa/fa prediabetic model at 10 mg/kg, po qd for 15 days by microarray analysis relative to control", "format": "functional"}, "[18]": {"assay": "AUC (0 to 24 hrs) in Zucker rat sub-chronic fa/fa prediabetic model at 3 mg/kg, po qd measured on day 1 post dose", "format": "ADME, organism-based", "parameters": "time < 24 hr, dose 3 mg/kg, route oral", "conditions": "in vivo"}, "[19]": {"test_system": "Rattus norvegicus", "assay": "Antidiabetic activity in Zucker rat sub-chronic fa/fa prediabetic model assessed as reduction in blood glucose AUC (0 to 120 min) at 10 mg/kg, po qd for 31 days measured on day 29 post dose by OGTT relative to control", "format": "functional", "parameters": "scale not given: the % may be the effect or the level left"}, "[20]": {"test_system": "Rattus norvegicus", "assay": "Effect on TNF gene expression in epididymal white adipose tissue of Zucker rat sub-chronic fa/fa prediabetic model at 10 mg/kg, po qd for 15 days by microarray analysis relative to control", "format": "functional"}, "[21]": {"test_system": "Rattus norvegicus", "assay": "Toxicity in […] model assessed as liver weight at 3 mg/kg, po qd for 31 days measured on day 32 (reference value: 2.77 +/- 0.16 g)", "format": "organism-based", "conditions": "in vivo, 744 h"}, "[22]": {"test_system": "Rattus norvegicus", "assay": "Effect on PPP2R5B gene expression in epididymal white adipose tissue of Zucker rat sub-chronic fa/fa prediabetic model at 10 mg/kg, po qd for 15 days by microarray analysis relative to control", "format": "functional"}, "[23]": {"target": "Peroxisome proliferator-activated receptor gamma (Homo sapiens, UniProt P37231)", "sequence (P37231 whole entry, the tested form may be a part)": "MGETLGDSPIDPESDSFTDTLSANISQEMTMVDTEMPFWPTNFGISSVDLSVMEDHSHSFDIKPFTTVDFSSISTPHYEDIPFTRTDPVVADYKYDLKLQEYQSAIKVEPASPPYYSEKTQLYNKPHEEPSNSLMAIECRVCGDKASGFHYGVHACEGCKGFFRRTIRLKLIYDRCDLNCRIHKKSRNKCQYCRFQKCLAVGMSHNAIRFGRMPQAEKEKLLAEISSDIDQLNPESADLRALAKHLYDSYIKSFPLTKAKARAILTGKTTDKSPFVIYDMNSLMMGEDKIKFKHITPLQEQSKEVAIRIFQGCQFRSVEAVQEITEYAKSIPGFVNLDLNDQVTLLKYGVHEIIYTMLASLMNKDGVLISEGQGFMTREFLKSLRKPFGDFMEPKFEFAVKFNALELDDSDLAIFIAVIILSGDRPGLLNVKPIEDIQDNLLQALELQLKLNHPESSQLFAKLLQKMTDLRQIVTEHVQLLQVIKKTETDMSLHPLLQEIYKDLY", "assay": "Inhibition of fluormone PPARgamma Green binding to recombinant N-terminal GST-tagged human PPARgamma LBD by fluorescence polarization assay"}, "[24]": {"test_system": "Rattus norvegicus", "assay": "Effect on CHUK gene expression in epididymal white adipose tissue of Zucker rat sub-chronic fa/fa prediabetic model at 10 mg/kg, po qd for 15 days by microarray analysis relative to control", "format": "functional"}, "[25]": {"assay": "Cmax in Zucker rat sub-chronic fa/fa prediabetic model at 10 mg/kg, po qd for 26 days measured on day 26 post last dose", "format": "ADME, organism-based", "parameters": "dose 10 mg/kg, route oral", "conditions": "in vivo"}, "[26]": {"test_system": "Rattus norvegicus", "assay": "Effect on IL1RN gene expression in epididymal white adipose tissue of Zucker rat sub-chronic fa/fa prediabetic model at 10 mg/kg, po qd for 15 days by microarray analysis relative to control", "format": "functional"}, "[27]": {"test_system": "Rattus norvegicus", "assay": "Antidiabetic activity in Zucker rat sub-chronic fa/fa prediabetic model assessed as fasting blood glucose level at 3 mg/kg, po qd for 31 days measured on day 29 post dose (reference value: 163 +/- 9.2 mg/dl)", "format": "functional"}, "[28]": {"test_system": "Rattus norvegicus", "assay": "Effect on GHR gene expression in epididymal white adipose tissue of Zucker rat sub-chronic fa/fa prediabetic model at 10 mg/kg, po qd for 15 days by microarray analysis relative to control", "format": "functional"}, "[29]": {"test_system": "Rattus norvegicus", "assay": "Toxicity in […] chronic ob/ob model assessed as serum creatinine level at 50 mg/kg, po qd for 31 days measured on day 32 (reference value: 0.55 +/- 0.018 mg/dl)", "format": "organism-based", "conditions": "in vivo, 744 h"}, "[30]": {"test_system": "Rattus norvegicus", "assay": "Effect on ACADM gene expression in epididymal white adipose tissue of Zucker rat sub-chronic fa/fa prediabetic model at 10 mg/kg, po qd for 15 days by microarray analysis relative to control", "format": "functional"}, "[31]": {"test_system": "Rattus norvegicus", "assay": "Toxicity in Zucker rat sub-chronic fa/fa prediabetic model assessed as serum ALT level at 50 mg/kg, po qd for 31 days measured on day 32 (reference value: 151 +/- 23 U/L)", "format": "organism-based", "conditions": "in vivo, 744 h"}, "[32]": {"test_system": "Rattus norvegicus", "assay": "Antidiabetic activity in […] model assessed as HbA1C level at 50 mg/kg, po qd for 31 days measured on day 32 post dose (reference value: 5.9 +/- 0.18%)", "format": "functional"}, "[33]": {"assay": "Cmax in […] chronic ob/ob model at 3 mg/kg, po qd measured on day 1 post dose", "format": "ADME, organism-based", "parameters": "dose 3 mg/kg, route oral", "conditions": "in vivo"}}}
{"compound": "CN1CC[C@@H](N2C(=O)S/C(=C\\c3ccc4c(cnn4Cc4ccc(Cl)cc4C(F)(F)F)c3)C2=O)[C@H](F)C1", "values": [{"measurement": "Activity", "setting": "[1]", "value": 26.9, "unit": "mg/dL"}, {"measurement": "fold change (FC)", "setting": "[2]", "value": 1.35}, {"measurement": "Activity", "setting": "[3]", "value": 167.8, "unit": "g"}, {"measurement": "fold change (FC)", "setting": "[4]", "value": 1.391}, {"measurement": "AUC(0-t) at 24 h", "setting": "[5]", "value": 6230, "unit": "ng·h/mL"}, {"measurement": "fold change (FC)", "setting": "[6]", "value": -1.216}, {"measurement": "Activity", "setting": "[7]", "value": 26.3, "unit": "mg/dL"}, {"measurement": "Activity", "setting": "[8]", "value": 561, "unit": "g"}, {"measurement": "Activity", "setting": "[9]", "value": 46.8, "unit": "g"}, {"measurement": "Activity", "setting": "[10]", "value": 8.7, "unit": "g"}, {"measurement": "Activity", "setting": "[11]", "value": 525, "unit": "g"}, {"measurement": "Cmax", "setting": "[12]", "value": 223, "unit": "ng/mL"}, {"measurement": "AUC at 24 h", "setting": "[13]", "value": 2150, "unit": "ng·h/mL"}, {"measurement": "Activity", "setting": "[14]", "value": 81, "unit": "mg/dL"}, {"measurement": "Activity", "setting": "[15]", "value": 23.9, "unit": "mg/dL"}, {"measurement": "Activity", "setting": "[16]", "value": 197, "unit": "mg/dL"}, {"measurement": "fold change (FC)", "setting": "[17]", "value": 2.249}, {"measurement": "AUC(0-t) at 24 h", "setting": "[18]", "value": 5980, "unit": "ng·h/mL"}, {"measurement": "Activity", "setting": "[19]", "value": 55, "unit": "%"}, {"measurement": "fold change (FC)", "setting": "[20]", "value": -1.24}, {"measurement": "Activity", "setting": "[21]", "value": 2.65, "unit": "g"}, {"measurement": "fold change (FC)", "setting": "[22]", "value": 1.276}, {"measurement": "IC50", "setting": "[23]", "value": "> 10", "unit": "µM"}, {"measurement": "fold change (FC)", "setting": "[24]", "value": 1.379}, {"measurement": "Cmax", "setting": "[25]", "value": 2900, "unit": "ng/mL"}, {"measurement": "fold change (FC)", "setting": "[26]", "value": -1.209}, {"measurement": "Activity", "setting": "[27]", "value": 118, "unit": "mg/dL"}, {"measurement": "fold change (FC)", "setting": "[28]", "value": 1.276}, {"measurement": "Activity", "setting": "[29]", "value": 0.43, "unit": "mg/dL"}, {"measurement": "fold change (FC)", "setting": "[30]", "value": 1.475}, {"measurement": "Activity", "setting": "[31]", "value": 104, "unit": "U/L"}, {"measurement": "Activity", "setting": "[32]", "value": 5, "unit": "%"}, {"measurement": "Cmax", "setting": "[33]", "value": 207, "unit": "ng/mL"}]}
